From patent publication US20090105292A9, “Glucocorticoid Receptor Modulator Compounds and Methods” (LIGAND PHARMACEUTICALS INCORPORATED, priority 2004, published 2009)

Each molecule was assayed against T1, human glucocorticoid receptor protein (GR) (Homo sapiens, UniProt P04150) (assay: Glucocorticoid receptor binding assay ([3H]dexamethasone competition, GR lysate)). Conditions: not given.
T1 construct: made in house; host or cells: Spodoptera frugiperda Sf21 insect cells (baculovirus)
T1 sequence (P04150 1-777): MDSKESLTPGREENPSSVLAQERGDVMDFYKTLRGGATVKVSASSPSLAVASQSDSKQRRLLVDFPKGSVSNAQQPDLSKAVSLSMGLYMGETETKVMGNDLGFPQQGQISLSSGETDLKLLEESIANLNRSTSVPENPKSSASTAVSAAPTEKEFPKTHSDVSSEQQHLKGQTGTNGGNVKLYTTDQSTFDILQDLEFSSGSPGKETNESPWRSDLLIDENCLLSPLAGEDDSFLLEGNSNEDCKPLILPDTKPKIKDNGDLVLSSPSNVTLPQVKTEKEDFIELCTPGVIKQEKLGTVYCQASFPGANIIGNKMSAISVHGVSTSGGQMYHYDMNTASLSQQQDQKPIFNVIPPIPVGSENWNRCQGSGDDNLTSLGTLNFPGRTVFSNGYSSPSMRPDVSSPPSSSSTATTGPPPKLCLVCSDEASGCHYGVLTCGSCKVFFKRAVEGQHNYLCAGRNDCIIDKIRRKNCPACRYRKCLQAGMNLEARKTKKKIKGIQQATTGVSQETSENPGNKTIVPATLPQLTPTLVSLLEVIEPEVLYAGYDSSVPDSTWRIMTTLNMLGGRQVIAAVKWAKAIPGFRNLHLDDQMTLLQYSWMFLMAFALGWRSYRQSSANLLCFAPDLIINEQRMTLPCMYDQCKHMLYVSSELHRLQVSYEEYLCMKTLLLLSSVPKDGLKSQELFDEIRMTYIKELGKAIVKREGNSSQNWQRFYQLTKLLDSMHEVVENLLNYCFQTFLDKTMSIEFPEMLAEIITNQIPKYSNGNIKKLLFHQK
Protocol: A baculovirus expression plasmid containing cDNA encoding the human glucocorticoid receptor protein (GR) was prepared using standard techniques. […] That expression plasmid was co-transfected together with wild type Autographa californica multiple nuclear polyhedrosis virus DNA into Spodopter frugiperda-21 (Sf-21) cells to generate recombinant virus containing GR cDNA. See e.g., O'Reilly, D. R., Miller, L. K., Luckow, V. A., Regulation of expression of a baculovirus ecdysteroid UDP glucosyltransferase gene. […] That recombinant virus containing GR cDNA was collected.
A suspension culture of uninfected Sf21 cells was grown to a density of 1.2×10^6 cells/ml and then infected with the recombinant virus containing GR cDNA at a multiplicity of infection of 2. Those infected Sf21 cells were incubated for 48 hours and then collected by centrifugation at 1000×g for 10 minutes at 4° C. The resulting cell pellets were resuspended in lysis buffer (50 mM Potassium Phosphate buffer, pH 7.0, 10 mM Monothioglycerol, 5 mM DTT, 20 mM Sodium Molybdate, 1 mM PMSF, 1 μg/mL aprotinin, and 10 μg/mL leupeptin) and incubated for 15 minutes on ice. Those resuspended cell pellets were homogenized using a Dounce homogenizer and a B pestle. A volume of 2 M KCl was added to the homogenized cell pellets to a final concentration of 0.4 M. The resulting GR lysates were centrifuged at 100,000×g for 60 min at 4° C. and stored for use in binding assays.
Binding assay samples were prepared in separate mini-tubes in a 96-well format at 4° C. Each binding assay sample was prepared in a volume of 250 μL of Assay Buffer (10% glycerol, 25 mM sodium phosphate, 10 mM potassium fluoride, 10 mM sodium molybdate, 0.25 mM CHAPS, 2 mM DTT and 1 mM EDTA, (adjusted to pH 7.5)) containing 50 μg of GR lysate; 2-4 nM of [^3H]dexamethasone at 84 Ci/mmol; and either a reference compound or a test compound. […] Each reference compound and test compound was assayed at varying concentrations, ranging from 0 to 10^−5 M. Each concentration of each reference compound and each test compound was assayed in triplicate. The assay samples were incubated for 16 hours at 4° C.
The assay samples were then centrifuged and the supernatants were discarded. The resulting pellets were washed twice with assay buffer lacking DTT. Radioactivity in counts per minute (CPM) of each washed pellet was determined by liquid scintillation counter (MicroBeta™, Wallach).
Specific binding for a particular sample was calculated using the equation: (Sample CPM)−(Average Non-specific CPM)
Average Non-specific CPM was defined as the amount of radioactivity from samples containing an excess (i.e. 1000 nM) of unlabeled dexamethasone. […] Ki values were determined using the Cheng-Prusoff equation using a previously determined Kd value for dexamethasone: Ki=IC50/(1+[L]/Kd)
[L]=concentration of labeled dexamethasone
Kd=dissociation constant of labeled dexamethasone

SMILES	Ki [nM]
COc1c(O)ccc2c1-c1ccc3c(c1/C(=C/c1ccccc1F)O2)C(C)=CC(C)(C)N3 [Compound 12, (Z)-5-(2′-fluorobenzylidene)-1,2-dihydro-9-hydroxy-10-methoxy-2,2,4-trimethyl-5H-chromeno[3,4-f]quinoline]	< 1
COc1c(O)ccc2c1-c1ccc3c(c1/C(=C/c1oc(C)cc1C(=O)N(C)C)O2)C(C)=CC(C)(C)N3 [Compound 146, (Z)-5-(2′-(3′-dimethylaminocarbonyl-5H-methylfuranylmethylidene))-1,2-dihydro-9-hydroxy-10-methoxy-2,2,4-trimethyl-5H-chromeno[3,4-f]quinoline]	> 3
COc1c(O)ccc2c1-c1ccc3c(c1/C(=C/c1sccc1C(=O)N1CCC(=O)CC1)O2)C(C)=CC(C)(C)N3 [Compound 252, (Z)-5-(2′-(3′-(4″-Oxo-piperidinecarbonyl)thienylmethylidene))1,2-dihydro-9-hydroxy-10-methoxy-2,2,4-trimethyl-5H-chromeno[3,4-f]quinoline]	1 to 2

Same assay, conditions: competition with 2-4 nM [3H]dexamethasone, 16 hours at 4° C., Cheng-Prusoff; read-out: Ki

SMILES	Ki [nM]
C=CCC(O)c1ccsc1C=C1Oc2ccc(O)c(OC)c2-c2ccc3c(c21)C(C)=CC(C)(C)N3 (single isomer, unassigned; (-)) [Compound 201, (−)-(Z)-5-(2′-(3′-(1″-Hydroxybut-3″-enyl)thienylmethylidene))1,2-dihydro-9-hydroxy-10-methoxy-2,2,4-trimethyl-5H-chromeno[3,4-f]quinoline]	1 to 2
COc1c(O)ccc2c1-c1ccc3c(c1/C(=C/c1sccc1CN(C)C)O2)C(C)=CC(C)(C)N3 [Compound 166, (Z)-5-(2′-(3′-(Dimethylaminomethyl)thienylmethylidene))1,2-dihydro-9-hydroxy-10-methoxy-2,2,4-trimethyl-5H-chromeno[3,4-f]quinoline]	2 to 3
COc1c(O)ccc2c1-c1ccc3c(c1/C(=C/c1sccc1C(O)C(F)(F)F)O2)C(C)=CC(C)(C)N3 (racemic) [Compound 202, (±)-(Z)-5-(2′-(3′-(1″-Hydroxy-2″,2″,2″-trifluoroethyl)thienylmethylidene))1,2-dihydro-9-hydroxy-10-methoxy-2,2,4-trimethyl-5H-chromeno[3,4-f]quinoline]	1 to 2
CCNC(=O)c1ccsc1/C=C1\Oc2ccc(O)c(OC)c2-c2ccc3c(c21)C(C)=CC(C)(C)N3 [Compound 249, (Z)-5-(2′-(3′-Ethylcarbamoylthienylmethylidene))1,2-dihydro-9-hydroxy-10-methoxy-2,2,4-trimethyl-5H-chromeno[3,4-f]quinoline]	1 to 2
COc1c(O)ccc2c1-c1ccc3c(c1/C(=C/c1ccc4c(c1)OCO4)O2)C(C)=CC(C)(C)N3 [Compound 67, (Z)-5-(3′,4′-methylenedioxybenzylidene)-1,2-dihydro-9-hydroxy-10-methoxy-2,2,4-trimethyl-5H-chromeno[3,4-f]quinoline]	< 1
COc1c(O)ccc2c1-c1ccc3c(c1/C(=C/c1sccc1C(=O)N(C)C)O2)C(C)=CC(C)(C)N3 [Compound 132, (Z)-5-(2′-(3′-(dimethylaminocarbonyl)thienylmethylidene))-1,2-dihydro-9-hydroxy-10-methoxy-2,2,4-trimethyl-5H-chromeno[3,4-f]quinoline]	1 to 2
COCc1ccsc1/C=C1\Oc2ccc(O)c(OC)c2-c2ccc3c(c21)C(C)=CC(C)(C)N3 [Compound 193, (Z)-5-(2′-(3′-Methoxymethylthienylmethylidene))1,2-dihydro-9-hydroxy-10-methoxy-2,2,4-trimethyl-5H-chromeno[3,4-f]quinoline]	1 to 2
CCN(C)C(=O)c1ccsc1/C=C1\Oc2ccc(O)c(OC)c2-c2ccc3c(c21)C(C)=CC(C)(C)N3 [Compound 134, (Z)-5-(2′-(3′-(ethylmethylaminocarbonyl)thienylmethylidene))-1,2-dihydro-9-hydroxy-10-methoxy-2,2,4-trimethyl-5H-chromeno[3,4-f]quinoline]	< 1
C=CCO/N=C(\C)c1ccsc1/C=C1\Oc2ccc(O)c(OC)c2-c2ccc3c(c21)C(C)=CC(C)(C)N3 [Compound 178, (Z)-5-(2′-(3′-((E)-1″-Allyloxyiminoethyl)thienylmethylidene))1,2-dihydro-9-hydroxy-10-methoxy-2,2,4-trimethyl-5H-chromeno[3,4-f]quinoline]	1 to 2
C=CCC(O)c1ccsc1C=C1Oc2ccc(O)c(OC)c2-c2ccc3c(c21)C(C)=CC(C)(C)N3 (single isomer, unassigned; (+)) [Compound 200, (+)-(Z)-5-(2′-(3′-(1″-Hydroxybut-3″-enyl)thienylmethylidene))1,2-dihydro-9-hydroxy-10-methoxy-2,2,4-trimethyl-5H-chromeno[3,4-f]quinoline]	1 to 2
COc1c(O)ccc2c1-c1ccc3c(c1/C(=C/c1sccc1C(C)O)O2)C(C)=CC(C)(C)N3 (racemic) [Compound 171, (±)-(Z)-5-(2′-(3′-(1″-Hydroxyethyl)thienylmethylidene))1,2-dihydro-9-hydroxy-10-methoxy-2,2,4-trimethyl-5H-chromeno[3,4-f]quinoline]	1 to 2
COc1c(O)ccc2c1-c1ccc3c(c1/C(=C/c1oc(C)cc1C(=O)N1CCCCC1)O2)C(C)=CC(C)(C)N3 [Compound 151, (Z)-5-(2′-(5′-Methyl-3′-(piperidinecarbonyl)furanylmethylidene))1,2-dihydro-9-hydroxy-10-methoxy-2,2,4-trimethyl-5H-chromeno[3,4-f]quinoline]	1 to 2
CC#CCOCc1ccsc1/C=C1\Oc2ccc(O)c(OC)c2-c2ccc3c(c21)C(C)=CC(C)(C)N3 [Compound 237, (Z)-5-(2′-(3′-(But-2″-ynloxymethyl)thienylmethylidene))1,2-dihydro-9-hydroxy-10-methoxy-2,2,4-trimethyl-5H-chromeno[3,4-f]quinoline]	1 to 2
CCN(CC)C(=O)c1ccccc1/C=C1\Oc2ccc(O)c(OC)c2-c2ccc3c(c21)C(C)=CC(C)(C)N3 [Compound 75, (Z)-5-(2′-diethylaminocarbonylbenzylidene)-1,2-dihydro-9-hydroxy-10-methoxy-2,2,4-trimethyl-5H-chromeno[3,4-f]quinoline]	< 1
COc1c(O)ccc2c1-c1ccc3c(c1/C(=C/c1ccc(C(=O)N4CCCC4)s1)O2)C(C)=CC(C)(C)N3 [Compound 143, (Z)-5-(2′-(5′-(pyrrolidinocarbonyl)thienylmethylidene))-1,2-dihydro-9-hydroxy-10-methoxy-2,2,4-trimethyl-5H-chromeno[3,4-f]quinoline]	1 to 2
COCCN(CCOC)C(=O)c1ccsc1/C=C1\Oc2ccc(O)c(OC)c2-c2ccc3c(c21)C(C)=CC(C)(C)N3 [Compound 138, (Z)-5-(2′-(3′-(di(methoxyethyl)aminocarbonyl)thienylmethylidene))-1,2-dihydro-9-hydroxy-10-methoxy-2,2,4-trimethyl-5H-chromeno[3,4-f]quinoline]	1 to 2
COc1c(O)ccc2c1-c1ccc3c(c1/C(=C/c1ccccc1C(=O)N1CCCC1)O2)C(C)=CC(C)(C)N3 [Compound 90, (Z)-5-(2′-(pyrrolidinecarbonyl)benzylidene)-1,2-dihydro-9-hydroxy-10-methoxy-2,2,4-trimethyl-5H-chromeno[3,4-f]quinoline]	< 1
